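Tested at 5 concentrations; 48 h exposure; 96-well plates; endpoints linearly interpolated, else capped at highest concentration. GI50 is the concentration that inhibits growth by half. TGI is the concentration that stops growth completely.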
Tests used:
Experiment in all cases: NCI tumour cell line growth inhibition, 48 h
M14 melanoma = test system: M14 melanoma
EKVX NSCLC = test system: EKVX NSCLC
TK-10 renal = test system: TK-10 renal
SK-MEL-28 melanoma = test system: SK-MEL-28 melanoma
U251 CNS = test system: U251 CNS
SF-268 CNS = test system: SF-268 CNS
UO-31 renal = test system: UO-31 renal
SF-295 CNS = test system: SF-295 CNS
ACHN renal = test system: ACHN renal
HS 578T breast = test system: HS 578T breast

| Structure (SMILES) | GI50 (M14 melanoma) [µM] | TGI (M14 melanoma) [µM] | GI50 (EKVX NSCLC) [µM] | TGI (EKVX NSCLC) [µM] | GI50 (TK-10 renal) [µM] | TGI (TK-10 renal) [µM] | GI50 (SK-MEL-28 melanoma) [µM] | TGI (SK-MEL-28 melanoma) [µM] | GI50 (U251 CNS) [µM] | TGI (U251 CNS) [µM] | GI50 (SF-268 CNS) [µM] | TGI (SF-268 CNS) [µM] | GI50 (UO-31 renal) [µM] | TGI (UO-31 renal) [µM] | GI50 (SF-295 CNS) [µM] | TGI (SF-295 CNS) [µM] | GI50 (ACHN renal) [µM] | TGI (ACHN renal) [µM] | GI50 (HS 578T breast) [µM] | TGI (HS 578T breast) [µM] |
| --- | --- | --- | --- | --- | --- | --- | --- | --- | --- | --- | --- | --- | --- | --- | --- | --- | --- | --- | --- | --- |
| [N-]=[N+]=NCCCn1c2c(c3ccc([N+](=O)[O-])cc3c1=O)C(=O)c1ccccc1-2 | > 100 | > 100 | > 100 | > 100 | 99.2 | > 100 | > 100 | > 100 | 4.28 | > 100 | 79.8 | > 100 | > 100 | > 100 | 4.82 | > 100 | 9.14 | > 100 | – | – |
| NC(CSC(c1ccccc1)(c1ccccc1)c1ccccc1)C(=O)NCC(=O)O (stereo unspecified) | 3.73 | 23.2 | – | – | – | – | 8.19 | > 100 | 3.64 | 63.8 | 5.38 | > 100 | 31.3 | > 100 | 6.1 | > 100 | 18.9 | > 100 | 3.29 | 25.1 |
| COc1cc(NS(=O)(=O)c2ccc(C)cc2)c2nccnc2c1 | – | 35.1 | – | > 100 | – | > 100 | – | > 100 | – | 89.3 | – | 93.7 | – | > 100 | – | > 100 | – | 80.8 | – | – |
| COC(=O)C(=O)CC(=O)CCn1[nH]c(=O)c(Cl)c(Cl)c1=O | – | > 100 | – | > 100 | – | > 100 | – | > 100 | – | > 100 | – | > 100 | – | > 100 | – | > 100 | – | > 100 | – | – |
| CCC[CH2][Sn]([CH2]CCC)([O]C(=O)CN)[O]C(=O)CN | 36.7 | > 100 | 16 | 51.2 | 38.4 | > 100 | 29.2 | > 100 | 26 | 80.7 | 20.6 | 71.6 | > 100 | > 100 | 34.5 | > 100 | 48.1 | > 100 | – | – |
| C=CC[P@]1(=O)O[C@H](c2ccccc2)[C@H](C)N1C | – | > 100 | – | > 100 | – | > 100 | – | > 100 | – | > 100 | – | > 100 | – | > 100 | – | > 100 | – | > 100 | – | – |
| COc1ccc2c(c1)C(=O)/C(=C/c1cccc(OCC(=O)c3ccccc3)c1)O2 | – | – | 9.88 | 29.1 | 2.45 | 5.5 | 4.76 | 15.7 | 7.97 | 20.8 | 4.25 | 16.6 | 1.59 | 3.09 | 20 | 38.1 | 1.79 | 3.38 | 13.8 | 48.1 |
| CCN(CC)CCNC(Cc1ccccc1)c1ccc(OCc2ccccc2)cc1 (stereo unspecified) | 2.07 | 5.09 | – | – | – | – | 1.85 | 4.03 | 3.41 | 15.3 | 7.57 | 22.3 | 2.53 | 14.7 | 2.04 | 4.57 | 7.85 | 21.6 | 4.32 | 23.8 |
| CC(=O)C1C(c2ccccc2)C2(C)OC(=O)C(C#N)C12C (stereo unspecified) | – | > 100 | – | > 100 | – | > 100 | – | > 100 | – | > 100 | – | > 100 | – | > 100 | – | > 100 | – | > 100 | – | – |
| O=C1N/C(=C\[N+](=O)[O-])c2ccccc21 | – | > 100 | – | > 100 | – | > 100 | – | > 100 | – | > 100 | – | > 100 | – | > 100 | – | > 100 | – | > 100 | – | – |
| O=c1[nH]c2ccccc2cc1-c1nc2ccc(Cl)cc2[nH]1 | 2.86 | > 100 | 2.35 | > 100 | 2.51 | > 100 | 6.66 | 45.7 | 3.87 | > 100 | 6.09 | > 100 | 3.31 | > 100 | 9.63 | > 100 | 2.45 | > 100 | – | – |
| NC(CCCC(N)P(=O)(O)O)P(=O)(O)O (stereo unspecified) | – | > 100 | – | > 100 | – | > 100 | – | > 100 | – | > 100 | – | – | – | > 100 | – | > 100 | – | > 100 | – | – |
| Cc1ccc(S(=O)(=O)N/N=C2\CCCCC23CCC(=O)NC3)cc1 (stereo unspecified) | – | > 100 | – | – | – | > 100 | – | > 100 | – | > 100 | – | > 100 | – | > 100 | – | – | – | > 100 | – | – |
| CCN1C(=O)c2ccc3c4c(ccc(c24)C1=O)C(=O)N(CCCNCc1ccccc1OC)C3=O | 0.69 | 2.1 | – | – | 2.52 | 7.6 | 1.58 | 3.24 | 1.25 | 3.32 | 1.15 | 5.75 | 1.39 | 3.58 | 0.377 | 1.37 | 0.553 | 4.63 | 2.21 | 8.35 |
| O=C(Nc1ccc(C(F)(F)F)cc1[N+](=O)[O-])C(=O)C1NC(=S)NC1=O (stereo unspecified) | – | > 100 | – | > 100 | – | > 100 | – | > 100 | – | > 100 | – | > 100 | – | > 100 | – | > 100 | – | > 100 | – | – |
| N#CCC(=O)N/N=C1/C(=O)N(c2ccc(Cl)cc2)C(=O)C(=O)C1c1nc2ccccc2s1 (stereo unspecified) | – | > 100 | – | > 100 | – | > 100 | – | > 100 | – | > 100 | – | > 100 | – | > 100 | – | > 100 | – | > 100 | – | – |
| CC1(O)C(C)(O)C2(C)O[Te]3(OC12C)OC1(C)C(C)(O)C(C)(O)C1(C)O3 (stereo unspecified) | – | > 100 | – | > 100 | – | > 100 | – | 38.1 | – | 23.8 | – | – | – | 87.5 | – | > 100 | – | > 100 | – | – |
| COc1ccc(C=O)cc1O[Si](C)(C)C(C)(C)C | – | > 100 | – | > 100 | – | > 100 | – | – | – | > 100 | – | > 100 | – | > 100 | – | > 100 | – | > 100 | – | – |
